Results as given in patent US12377076B2, “Compounds for treating lymphoma or a T-cell malignant disease” (Purdue Pharma L.P., priority 2018, dated 2025).
Values joined by “and” are separate entries in the source; they are usually repeats but may differ in a detail not shown here. Equal entries are not always repeated. “Also recorded” adds a separate entry of the source.

Test system: patients with relapsed/refractory hematologic malignancies
Assay: Phase 1 dose escalation trial: safety, TEAEs, DLTs, MTD
Assay type: in vivo, human
Method: A phase 1 trial was carried out including a dose escalation study to investigate the safety, pharmacokinetic (PK) profiles and efficacy of tinostamustine (EDO-S101) in relapsed/refractory hematologic malignancies.
The patient had relapsed/refractory hematologic malignancies for which there are no available therapies.
The assessment of dose-limiting toxicities (DLTs) was based on cycle 1 events alone. Toxicities were assessed regarding type and severity using the National Cancer Institute (NCI) Common Terminology Criteria for Adverse Events (CTCAE) version 4.03, June 2010. Toxicity data were collected for all patients throughout their time on study. Infusion site reactions were assessed using the Phlebitis Scale developed by the Infusion Nurses Society (2011).
DLTs, which were at least possibly related to study drug, were defined as: • Any Grade 3 or 4 non-hematologic toxicity (excluding alopecia and easily correctable electrolyte abnormalities); • Nausea, vomiting or diarrhoea that persists beyond 10 days despite aggressive symptomatic treatment; • Grade 4 neutropenia or thrombocytopenia lasting for 7 days or more; • Any grade 2 or more toxicity, but persist for over 3 weeks; and • Any toxicity resulting in a delay of the next dose administration (cycle 2 day 1≥14).
To ensure patients' safety, the stopping rules were implemented to the dose escalation stage of the study.
Other safety assessments included physical examinations, Eastern Cooperative Oncology Group (ECOG) performance status determinations, electrocardiograms (ECGs), pregnancy testing for women of childbearing potential, documentation of treatment-emergent adverse events (TEAEs), clinical laboratory evaluations including haematology, blood chemistry and urinalysis, vital signs, and documentation of concomitant medication usage.
If there is no DLT observed in any of these subjects, the trial proceeds to enroll additional subjects into the next higher dose cohort. If one subject develops a DLT at a specific dose, an additional three subjects are enrolled into that same dose cohort.

[1] = all cohorts administered over 30 or 45 minutes
[2] = clinical chemistry TEAE, All Patients (N = 46)
[3] = clinical chemistry TEAE, all patients
[4] = doses of 20 to 80 mg/m^2, cohorts 20/60 to 120/60
[5] = doses of 100 or 120 mg/m^2, cohorts 20/60 to 120/60
[6] = patients with normal or grade 1 or 2 values at baseline

SMILES: Cn1c(CCCCCCC(=O)NO)nc2cc(N(CCCl)CCCl)ccc21 [tinostamustine]
- DLTs in cycle 1 (100 mg/m^2 over 60 minutes): no dose-limiting toxicities
- patients with Grade 3 and 4 thrombocytopenia in C2 and C3 leading to withdrawal (100 mg/m^2 over 60 minutes): three
- Grade 3 TEAE (Patients (N = 46)): 28 (60.8)
- Grade 4 TEAE (Patients (N = 46)): 13 (28.2)
- Infusion site phlebitis (Patients (N = 46)): 1 (2.1)
- SAE (Patients (N = 46)): 8 (17.4)
- TEAE leading to early study discontinuation (Patients (N = 46)): 11 (23.9)
- TEAE with outcome of death (Patients (N = 46)): 0 (0)
- TEAE (Patients (N = 46), number (percent)): 42 (91.3)
- Treatment-related TEAE (Patients (N = 46), relationship possible, probable or definite): 38 (82.6)
- incidence of leukopenia (administered over 30 or 45 minutes): 16%
- incidence of leukopenia (administered over 60 minutes): 27%
- incidence of thrombocytopenia (administered over 60 minutes): 58%
- maximum tolerated dose (MTD) (administered over 60 minutes, subset of patients with MM (N=11)): 100 mg/m^2
- SAE dyspnea (all 46 patients): 2%
- SAE febrile neutropenia (all 46 patients): 2%
- SAE hypersensitivity (all 46 patients): 2%
- SAE osteomyelitis (all 46 patients): 2%
- SAE pleural effusion (all 46 patients): 2%
- SAE pneumonia (all 46 patients): 2%
- SAE sepsis (all 46 patients): 2%
- TEAE with an outcome of death (grade 5 TEAE) (all 46 patients): No patient
- anaphylactic reaction leading to study drug discontinuation (all 46 patients): 2%
- blood and lymphatic system disorders (all 46 patients): 54%
- discontinuation for adverse events (AE) (all 46 patients): 29%
- febrile neutropenia leading to study drug discontinuation (all 46 patients): 2%
- gastrointestinal (GI) disorders (all 46 patients): 52%
- general disorders and administration site conditions (all 46 patients): 50%
- grade 3/4 anemia (all 46 patients): 22%
- grade 3/4 leukopenia/WBC decreased (all 46 patients): 15% and 16%
- grade 3/4 lymphopenia (all 46 patients): 8.6%
- grade 3/4 neutropenia/neutrophil count decreased (all 46 patients): 29%
- grade 3/4 thrombocytopenia (all 46 patients): 39% and 40%
- hypersensitivity leading to study drug discontinuation (all 46 patients): 2%
- incidence of all other TEAEs (all 46 patients): < 20%
- incidence of nausea (all 46 patients): 29%
- infusion-site phlebitis events (all 46 patients): 2%
- neutropenia leading to study drug discontinuation (all 46 patients): 4%
- patients who discontinued study drug because of a TEAE (all 46 patients): 23%
- patients with a grade 3 or 4 TEAE (all 46 patients): 63%
- patients with at least 1 grade 3 TEAE (all 46 patients): 60%
- patients with at least 1 grade 4 TEAE (all 46 patients): 28%
- patients with at least 1 serious adverse event (SAE) (all 46 patients): 18%
- patients with at least one TEAE (all 46 patients): 91%
- patients with at least one study drug-related TEAE (all 46 patients): 38 patients
- pleural effusion leading to study drug discontinuation (all 46 patients): 2%
- pruritus leading to study drug discontinuation (all 46 patients): 2%
- thrombocytopenia leading to study drug discontinuation (all 46 patients): 15%
- incidence of anaemia (all 46 patients, any grade): 39%
- incidence of leukopenia/WBC decreased (all 46 patients, any grade): 21% and 22%
- incidence of neutropenia/neutrophil count decreased (all 46 patients, any grade): 29% and 28%
- incidence of thrombocytopenia/platelet count decreased (all 46 patients, any grade): 52%
- SAE thrombocytopenia (all 46 patients, grade 3, HM120/60 cohort): 2%
- incidence of anaemia [1]: 37%
- incidence of thrombocytopenia [1]: 47%
- thrombocytopenia leading to study drug and/or study discontinuation (all patients): 19%
- Blood alkaline phosphatase increased [2]: 1 (2.1) n (%)
- Blood magnesium decreased [2]: 1 (2.1) n (%)
- Blood potassium decreased/hypokalaemia [2]: 5 (10.8) n (%)
- C-reactive protein increased [2]: 2 (4.3) n (%)
- Hyperglycaemia [2]: 1 (2.1) n (%)
- Hyperuricemia [2]: 1 (2.1) n (%)
- blood creatinine increased [2]: 4 (8.6) n (%)
- C-reactive protein increased [3]: 4%
- blood creatinine increased [3]: 9%
- blood potassium decreased/hypokalemia [3]: 11%
- grade 3 hyperuricemia (considered unrelated to study drug): 2%
- DLTs that occurred (dose cohort of 120/60): Grade 4 thrombocytopenia lasting for 7 days or more; also recorded: Prolonged thrombocytopenia/toxicity resulting in the delay of the next dose administration
- incidence of grade 3 or 4 anaemia (doses of 20 to 80 mg/m^2): 8%
- incidence of anaemia [4]: 25%
- incidence of grade 3/4 thrombocytopenia [4]: 8%
- incidence of leukopenia [4]: 17%
- incidence of neutropenia [4]: 25%
- incidence of grade 3 or 4 anaemia (doses of 100 or 120 mg/m^2): 36%
- incidence of anaemia [5]: 64%
- incidence of grade 3/4 thrombocytopenia [5]: 71%
- incidence of leukopenia [5]: 36%
- incidence of neutropenia [5]: 50%
- haematological nadir occurs (human, in vivo, intravenous): 17-23 day
- patients who discontinued study drug and/or the study because of neutropenia (in vivo): Two
- patients who discontinued study drug or the study because of leukopenia (in vivo): No patient
- patients with treatment-emergent QTcF interval >500 msec (in vivo): One
- treatment-emergent ECG abnormality indicated to be clinically significant (in vivo): No patient
- MTD (lymphoma and multiple myeloma patients): 100 mg/m^2
- MTD (lymphoma subpopulation): 100 mg/m^2
- MAD (lymphoma subpopulation, administered over 1 hour): 120 mg/m^2
- patients experiencing DLTs (lymphoma, 120 mg/m^2 over 1 hour): Two out of six
- QTcF interval (one subject, MM 80/45 cohort, discontinuation visit three weeks after only dose, screening 423 msec): 677 ms
- incidence of cardiac disorders (overall): 11%
- study drug-related cardiac disorder, grade 1 palpitations (overall): 2%
- tachycardia (overall): 4%
- treatment-emergent grade 4 clinical chemistry abnormality, hyperuricemia [6]: 2%
- treatment-emergent shift to grade 3 aspartate aminotransferase increased [6]: 2%
- treatment-emergent shift to grade 3 hypoalbuminemia [6]: 2%
- incidence of neutropenia (shorter infusion times): 16%
